Results published in patent US20230181721A1 (priority 2020, published 2023).

Columns and labels:
HLA-A2.1 transgenic mice [1] = details: mouse, in vivo
HLA-A2.1 transgenic mice [2] = details: mouse, in vivo; remark: listed apart in the source
HLA-A2.1 transgenic mice [3] = details: mouse, in vivo; remark: listed apart in the source
human PBMC = format: cell-based

Substance	Trm (response) (HLA-A2.1 transgenic mice [1])	Trm response (HLA-A2.1 transgenic mice [1])	ELIspot (YES/NO) (HLA-A2.1 transgenic mice [2])	tetramer response (HLA-A2.1 transgenic mice [3])	Patient response (human PBMC)
ALSKGVHFV [3_wt]	No	No	Yes	medium	Yes
AVSKGVHFI [3_neoB]	–	No	Yes	medium	–
CLEASFNYV [5_neoA]	Yes	Yes	No	medium	Yes
FLAGLIAIV [6_neoA]	Yes	Yes	Yes	high	Yes
FLLNKEMYL [8_wt]	No	No	Yes	medium	Yes
FMAGLIAIV [6_neoB]	–	No	Yes	medium	–
FTAHIQWMV [7_neoB]	–	No	Yes	medium	–
GLMWLSYFV [14_neoA]	No	No	Yes	medium	Yes
GLSRIGMEV [15_neoA]	–	No	No	high	–
GTSRIGMEV [15_neoB]	–	No	No	high	–
KLADYNYKV [19_neoA]	–	–	Yes	low	Yes
KLKDCVMYA [20_wt]	–	Yes	No	medium	–
KLSYGIATE [22_neoB]	–	No	No	high	–
LALLLLDRL [23_wt]	Yes	Yes	Yes	medium	Yes
LLLDRLNQV [25_neoA]	–	No	Yes	medium	–
LLLPQGTTV [29_neoA]	Yes	Yes	No	medium	Yes
LLLTILTSV [26_neoA]	Yes	Yes	Yes	medium	Yes
LLSAGIFGV [27_neoA]	No	No	Yes	high	Yes
LLTGRLQSV [24_neoA]	–	No	Yes	high	–
LLWLIINLV [28_neoA]	No	No	Yes	high	Yes
LVSAGIFGV [27_neoB]	Yes	Yes	Yes	high	Yes
MLAKALRKV [30_wt]	No	No	Yes	high	Yes
MMISAGFSL [31_wt]	–	–	–	–	Yes

Substance	Trm (response) (HLA-A2.1 transgenic mice [1])	Trm response (HLA-A2.1 transgenic mice [1])	ELIspot (YES/NO) (HLA-A2.1 transgenic mice [2])	tetramer response (HLA-A2.1 transgenic mice [3])	Patient response (human PBMC)
NLIDSYFVV [32_wt]	Yes	Yes	Yes	medium	Yes
NLLKDCPAV [33_wt]	–	No	Yes	medium	–
NLNESLIDL [34_wt]	–	No	No	medium	–
QLEMELTPV [36_wt]	Yes	Yes	No	medium	Yes
RLMTWLDMV [37_neoA]	No	No	Yes	high	Yes
RLNEVAKNV [38_neoA]	–	No	No	high	–
RLNQLESKV [39_neoA]	–	Yes	No	medium	–
RTMTWLDMI [37_neoB]	No	No	Yes	high	Yes
SAPGVFCGV [41_neoB]	No	No	Yes	high	YES
SAWALIISV [42_neoB]	Yes	Yes	Yes	high	Yes
SLIAYTMSV [40_neoA]	–	No	Yes	medium	–
SMWALIISV [42_wt]	Yes	Yes	Yes	high	Yes
VLFLHVTYV [48_neoA]	No	No	Yes	high	Yes
VLMAPISAV [46_neoA]	–	No	Yes	medium	–
VLPTKLNDV [47_neoA]	Yes	Yes	No	medium	Yes
VSFLHVTYV [48_neoB]	Yes	Yes	Yes	high	Yes
VVFLHVTYV [48_wt]	No	No	Yes	high	Yes
WLMWLIINL [49_wt]	–	No	No	high	–
YLMADLVYT [55_neoB]	–	No	Yes	medium	–
YLNSTNVTV [51_neoA]	–	Yes	Yes	high	–
YLYALVYFV [54_neoA]	–	Yes	Yes	high	–
l_neoA (ALNTLVKQV)	Yes	Yes	Yes	high	Yes
